# Assay results from patent US20170224679A1, “Use of CXCR2 Antagonists For The Prevention and/or Treatment of Chemotherapy Induced Peripheral Neuropathy (CIPN)” (GlaxoSmithKline Intellectual Property Development Limited, priority 2014, published 2017).
# Assays:
# CXCR2 receptor = target: T1, CXCR2 receptor (Homo sapiens, UniProt P25025); test: Receptor binding assay ([125I] IL-8 SPA), CXCR2; parameters: expressed in transfected cells; host or cells: CHO cells (membranes)
# T1 sequence (P25025 1-360): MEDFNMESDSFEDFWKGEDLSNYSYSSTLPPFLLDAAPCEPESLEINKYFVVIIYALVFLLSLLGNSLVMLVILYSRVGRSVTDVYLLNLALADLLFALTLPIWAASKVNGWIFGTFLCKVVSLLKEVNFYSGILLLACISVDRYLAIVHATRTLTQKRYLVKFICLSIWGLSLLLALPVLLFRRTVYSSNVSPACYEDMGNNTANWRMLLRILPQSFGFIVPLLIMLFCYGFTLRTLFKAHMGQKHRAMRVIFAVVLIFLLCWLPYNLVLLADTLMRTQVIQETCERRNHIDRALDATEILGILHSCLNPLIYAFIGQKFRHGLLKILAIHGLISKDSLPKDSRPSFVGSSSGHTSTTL
# Description: High levels of recombinant human CXCR1 and CXCR2 receptors were individually expressed in Chinese hamster ovary (CHO) cells as described in Holmes, et al., Science, 1991, 253, 1278, incorporated herein to the extent required to perform the present assay. The Chinese hamster ovary membranes were prepared according to Haour, et al., J. Biol. Chem., 249 pp 2195-2205 (1974), incorporated herein to the extent required to perform the present assay, except that the homogenization buffer was changed to 40 mM Tris-HCL pH 7.5 containing 1 mM MgSO4, 0.5 mM EDTA (ethylene-diaminetetra-acetic acid), 1 mM PMSF (α-toluene-sulphonyl fluoride), 2.5 mg/L Leupeptin and 0.1 mg/ml Aprotinin. Membrane protein concentration was determined using Bio-Rad Reagent using bovine serum albumin as a standard. All binding assays were conducted using Scintillation Proximity Assay (SPA assay) using wheatgerm agglutinin beads in a 96-well micro plate (optiplate 96, Packard) format. The CHO-CXCR2 and CHO-CXCR1 membranes were pre-incubated with the beads in binding buffer; 20 mM Bis Tris propane, pH 8 containing 25 mM NaCl, 1 mM MgSO4, 0.1 mM EDTA at 4° C. for 30 min prior to assay. The compound was diluted in 100% DMSO at 20 times the final concentration (final 1 nM to 1000 nM and 5% DMSO). […] At the end of the incubation the plates were spun for 5 min at 2000 RPM, and counted in a Top Count counter.
# CXCR1 receptor = target: T2, CXCR1 receptor (Homo sapiens, UniProt P25024); test: GPCR Arrestin Assay (DiscoveRX PathHunter), CXCR1; format: cell-based; parameters: host or cells: PathHunter CHO cell lines; conditions: PathHunter CHO cells, agonist at EC80; read-out: pIC50 against the CXCR1 receptor (converted)
# T2 sequence (P25024 1-350): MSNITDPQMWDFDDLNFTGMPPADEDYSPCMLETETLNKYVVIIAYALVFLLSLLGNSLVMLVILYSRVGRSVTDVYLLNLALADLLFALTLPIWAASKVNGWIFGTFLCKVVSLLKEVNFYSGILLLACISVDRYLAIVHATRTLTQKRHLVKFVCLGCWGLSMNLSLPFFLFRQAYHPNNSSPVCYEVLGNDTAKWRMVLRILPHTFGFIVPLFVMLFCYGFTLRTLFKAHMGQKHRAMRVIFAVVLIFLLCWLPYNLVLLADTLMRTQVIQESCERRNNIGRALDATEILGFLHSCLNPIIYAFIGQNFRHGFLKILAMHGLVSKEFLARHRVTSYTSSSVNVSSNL
# Description: Certain compounds of the invention were also tested by DiscoveRX Corporation (42501 Albrae Street, Fremont, Calif. 94538, United States) in their GPCR Arrestin Assay to determine their activity against a panel of receptors including CXCR2 and CXCR1. PathHunter CHO cell lines were expanded from freezer stocks according to standard procedures. Cells were seeded in a total volume of 20 μL into white walled, 384-well microplates and incubated at 37° C. for the appropriate time prior to testing. The cells were pre-incubated with antagonist followed by agonist challenge at the EC80 concentration. Intermediate dilution of sample stocks was performed to generate 5× sample in assay buffer. 5 μL of 5× sample was added to cells and incubated at 37° C. or room temperature for 30 minutes. […] Assay signal was generated through a single addition of 12.5 or 15 μL (50% v/v) of PathHunter Detection reagent cocktail, followed by one hour incubation at room temperature. Microplates were read following signal generation with a PerkinElmer Envision™ instrument for chemiluminescent signal detection. Compound activity was analyzed using CBIS data analysis suite (ChemInnovation, Calif.).
Structure (SMILES),"IC50 (CXCR2 receptor; [125I] IL-8 binding, CHO-CXCR2 membranes, read-out: pIC50 against the CXCR2 receptor (converted)) [µM]",selectivity for CXCR2 over CXCR1 (CXCR2 receptor; receptor binding assay a)) [fold],IC50 (CXCR1 receptor) [µM]
"O=C(Nc1ccc(Cl)c(S(=O)(=O)N2CCNCC2)c1O)Nc1cccc(F)c1Cl [Compound of Formula (A), 1-(4-chloro-2-hydroxy-3-(piperazin-1-ylsulfonyl)phenyl)-3-(2-chloro-3-fluorophenyl)urea]",0.0158,188,
"CN1CCC(C)(S(=O)(=O)c2c(Cl)ccc(NC(=O)Nc3cccc(F)c3Cl)c2O)CC1 [Compound of Formula (D), 1-(4-chloro-3-((1,4-dimethylpiperidin-4-yl)sulfonyl)-2-hydroxyphenyl)-3-(2-chloro-3-fluorophenyl)urea]",,,2.51
